Data set [1] concerns patients having prednisone-induced osteoporosis complicated by arthralgia. To be noted: daily administration, Non-patent References 23 and 24; cited from earlier work.
Data set [2] relates to nausea and vomiting associated with administration of the test drug. The data set can be described thus: Prescriptions for nausea and vomiting associated with administration of the test drug. It counts as in vivo, human. As to conditions: summary of Table 18.
Source text: The administration period and efficacy of various drugs to treat nausea and vomiting associated with administration of the test drug were studied.
The conditions of data set [3]: 20 μg/day, Non-patent Reference 1, cited from earlier work.
For data set [4] the following is noted: conventional daily administration; osteoporosis patients having moderate renal dysfunction; Non-patent Reference 32; cited from earlier work.

Counter-ions that a name gives are not always drawn.

For the compound `CC[C@H](C)[C@H](NC(=O)[C@H](CCC(=O)O)NC(=O)[C@H](CO)NC(=O)[C@@H](NC(=O)[C@@H](N)CO)C(C)C)C(=O)N[C@@H](CCC(N)=O)C(=O)N[C@@H](CC(C)C)C(=O)N[C@@H](CCSC)C(=O)N[C@@H](Cc1cnc[nH]1)C(=O)N[C@@H](CC(N)=O)C(=O)N[C@@H](CC(C)C)C(=O)NCC(=O)N[C@@H](CCCCN)C(=O)N[C@@H](Cc1cnc[nH]1)C(=O)N[C@@H](CC(C)C)C(=O)N[C@@H](CC(N)=O)C(=O)N[C@@H](CO)C(=O)N[C@@H](CCSC)C(=O)N[C@@H](CCC(=O)O)C(=O)N[C@@H](CCCN=C(N)N)C(=O)N[C@H](C(=O)N[C@@H](CCC(=O)O)C(=O)N[C@@H](Cc1c[nH]c2ccccc12)C(=O)N[C@@H](CC(C)C)C(=O)N[C@@H](CCCN=C(N)N)C(=O)N[C@@H](CCCCN)C(=O)N[C@@H](CCCCN)C(=O)N[C@@H](CC(C)C)C(=O)N[C@@H](CCC(N)=O)C(=O)N[C@@H](CC(=O)O)C(=O)N[C@H](C(=O)N[C@@H](Cc1cnc[nH]1)C(=O)N[C@@H](CC(N)=O)C(=O)N[C@@H](Cc1ccccc1)C(=O)O)C(C)C)C(C)C` [Forteo, teriparatide (rDNA origin) injection], in data set [1], the “Bone strengthening effect compared with Fosamax” value was “stronger bone strengthening effect than Fosamax”.

Regarding `CCOc1cc(N)c(Cl)cc1C(=O)NCC1CN(Cc2ccc(F)cc2)CCO1` (stereo not drawn) [Gasmotin, mosapride citrate], the “Effect on nausea and vomiting associated with administration of the test drug (summary)” value (“Effect on nausea and vomiting associated” for short) in data set [2] is reported as “effective”.

Regarding `NC(N)=Nc1nc(CSCCC(N)=NS(N)(=O)=O)cs1` [Gaster D, famotidine], the “Effect on nausea and vomiting associated” value in data set [2] was “effective”.

`O=c1[nH]c2ccccc2n1CCCN1CCC(n2c(=O)[nH]c3cc(Cl)ccc32)CC1` [Nauzelin, domperidone]: the “Effect on nausea and vomiting associated” value in data set [2] is “effective”.

In the case of `CCN(CC)CCNC(=O)c1cc(Cl)c(N)cc1OC` [Primperan, metoclopramide], the “Effect on nausea and vomiting associated” value in data set [2] is recorded as “effective”.

Turning to `Cc1c(OCC(F)(F)F)ccnc1C[S+]([O-])c1nc2ccccc2[nH]1` (stereo not drawn) [Takepron OD, lansoprazole], the “Effect on nausea and vomiting associated” value in data set [2] is given as “effective”.

For “PTH: PTH (parathyroid hormone) in conventional daily administration (20 μg/day), results from cited literature”, the “Patients with persistent hypercalcemia” value in data set [3] is recorded as 3%. Further, the Patients with hypercalcemia in data set [3] (blood samples 4 to 6 hours after administration) is recorded as 11%. In data set [4], the “Patients with serum calcium exceeding 11.0 mg/mL after administration” value is listed as 11.76%.

These data come from patent US20140249084A1, “PTH-CONTAINING THERAPEUTIC/PROPHYLACTIC AGENT FOR OSTEOPOROSIS, CHARACTERIZED IN THAT PTH IS ADMINISTERED ONCE A WEEK IN A UNIT DOSE OF 100 TO 200 UNITS” (ASAHI KASEI PHARMA CORPORATION, priority 2009, published 2014).
